In patent publication US20260216189A1, “TOPICAL COMPOSITIONS CONTAINING A JANUS KINASE INHIBITOR” (Zoetis Services LLC, priority 2023, published 2026):

What was measured:
[1] = in vivo, po, 0.4 mg/kg
Description: (§1) The pharmacokinetics and pharmacodynamics (PK/PD) of orally dosed oclacitinib (0.4-0.6 mg/kg) is well understood. […] An oral 14C-oclacitinib study determined that a single 0.4 mg/kg dose achieved a mean skin concentration of 212 ng equivalents/gram of tissue. A house dust model (HDM) was used to assess the efficacy of the compositions described herein. The topical HDM challenge results in excoriation lesions and erythema at the challenge site. In one study, placebo (saline, TO1), triamcinolone acetonide 0.15 mg/mL (T02), oclacitinib maleate 7.5 mg/mL (T03) and oclacitinib maleate 10 mg/mL (T04) were topically administered to beagle dogs (8/group). The weights of drug in T02-T04 were freebase amounts.
Systemic plasma concentrations and skin concentrations 24 hours post dose were assessed for multiple compositions of the invention in a number of PK studies; including compositions with oclacitinib or oclacitinib maleate with API concentrations ranging from 1-10 mg/mL oclacitinib. […] The oral 14C-oclacitinib study determined that a 0.4 mg/kg oral dose of oclacitinib achieved a mean skin concentration of 212 ng equivalents/gram. […]

IL-31 induced itch = conditions: orally dosed oclacitinib (0.4-0.6 mg/kg); cited from earlier work
[2] = PK studies of topical compositions: systemic plasma and skin concentrations, single and repeat dose; assay type: in vivo
Description: Systemic plasma concentrations and skin concentrations 24 hours post dose were assessed for multiple compositions of the invention in a number of PK studies; including compositions with oclacitinib or oclacitinib maleate with API concentrations ranging from 1-10 mg/mL oclacitinib. The compositions tested to date have shown prolonged absorption that lasts at least 72 hours following a single dose and low topical bioavailability of less than 10% with single dose skin concentrations at least 20-80 times that observed in the oral single dose ^14C study. The oral 14C-oclacitinib study determined that a 0.4 mg/kg oral dose of oclacitinib achieved a mean skin concentration of 212 ng equivalents/gram. Permeation and penetration studies with compositions comprising a glycol, glycol ether and DMSO achieved single dose skin concentrations greater (28.4-54.5 μg/g) than that concentration achieved following oral administration, as mentioned above, and well above the reported oclacitinib IC50's for pro-inflammatory and pruritogenic cytokines.
The rate and amount of topical absorption can be a non-linear function of the API concentration of the composition. The topical compositions of the invention minimized systemic plasma oclacitinib concentrations while maintaining high skin concentrations. […] The studies to date and formulations described herein have shown that the compositions deliver skin concentrations greater than those observed with oral dosing. […] The topical single dose bioavailability is low, less than 5% when administered to an area that limits oral exposure from licking. […] Formulations with a lower oclacitinib concentration had lower systemic exposures.

[3] = subsequent study, 2-3 sprays of topical solution, skin concentrations; assay type: in vivo; conditions: 2.5-10 mg/mL, about 0.25 to 0.5 mL topical
Description: In a subsequent study, animals received 2.5-10 mg/mL oclacitinib by applying 2-3 sprays for a total of about 0.25 to 0.5 mL of the topical solution to an area of skin.

[4] = system: HDM challenge site (excoriation lesions and erythema); test: house dust model (HDM) challenge, topical treatment of beagle dogs; colorimeter erythema and lesion scores; assay type: in vivo; conditions: for Post challenge total lesion scores compared to the saline group: treatment groups vs saline group
Description: as §1
Daily assessments were observed through Day 41. Colorimeter measurements provided quantified erythema scores. […] Lesions were observed and scored based on severity of erythema, papules and excoriations at the challenge site.

Molecule	mean skin concentration [1] [ng equivalents/gram]	Plasma concentrations effective in reducing IL-31 induced itch (IL-31 induced itch)	24-hour post dose skin concentrations following repeat dosing, fold higher ([2]; across study comparisons, repeat vs single dosing)	accumulation in skin and plasma ([2]; following multiple daily administrations)	systemic levels ([2]; following multiple daily doses)	bioavailability ([2]; plasma, topical, administered to an area that limits oral exposure from licking) [%]	systemic plasma concentrations: absorption and terminal phase ([2]; single and repeat dose studies)	PK following topical administration, maleate vs freebase formulations ([2]; topical)	skin concentrations of oclacitinib [3]	erythema reduction compared to saline (colorimeter) ([4]; 7.5 mg/mL topical, Day 36 (P=0.0993))	area under the curve (AUC) of total lesion scores compared to saline ([4]; 10 mg/mL (p<0.08))	erythema reduction compared to saline (colorimeter) ([4]; 10 mg/mL topical, Days 27, 28, and 36 (p≤0.0948))	lesion score reduction after the dosing period ended, versus other treatment groups ([4]; after the 28 day dosing period, observation through Day 41)	erythema reduction compared to saline (colorimeter) ([4]; both concentrations (7.5 and 10 mg/mL), topical once daily, after approximately 1 month of dosing)	Post challenge total lesion scores compared to the saline group [4]	lesion score reduction compared to saline ([4]; spray 7.5 mg/mL, Days 4, 7, 11, 26, 27, 30, and 39)	lesion score reduction compared to saline ([4]; spray 10 mg/mL, Days 7-11, 26, 30, and 32-34)	lesion score reduction compared to saline ([4]; triamcinolone 0.15 mg/mL, Day 35)	lesion score reduction compared to saline ([4]; triamcinolone 0.15 mg/mL, Days 4, 8, 10, 11)	erythema reduction compared to saline (colorimeter) ([4]; triamcinolone spray 0.15 mg/mL, Days 12, 14, 19, 24-26, 28-33, and 35-41 (P≤0.0912))
CNS(=O)(=O)C[C@H]1CC[C@H](N(C)c2ncnc3[nH]ccc23)CC1 [oclacitinib, N-methyl-1-{trans-4-[methyl (7H-pyrrolo[2,3-d]pyrimidin-4-yl)amino]cyclohexyl}-methanesulfonamide]	212	greater than 12 ng/ml	at least 5 times	Accumulation in skin and plasma was observed	at a concentration that has shown efficacy in reducing IL-31 induced itch	< 5	prolonged absorption with the terminal phase not evident 10 days post dose	comparable	acceptable skin concentrations	significantly greater reduction in erythema	significantly lower	significantly greater reduction	continued to demonstrate significant reduction in lesion scores	significant erythema reductions	significantly higher	significantly greater lesion score reductions	significantly greater lesion score reductions	–	–	–
CC1(C)O[C@@H]2C[C@H]3[C@@H]4CCC5=CC(=O)C=C[C@]5(C)[C@@]4(F)[C@@H](O)C[C@]3(C)[C@]2(C(=O)CO)O1 [triamcinolone, triamcinolone acetonide]	–	–	–	–	–	–	–	–	–	–	–	–	–	–	significantly higher	–	–	significantly lesser reduction	significantly greater reductions in lesion scores	significantly less reduction in erythema
oclacitinib maleate	–	–	–	–	–	–	–	comparable	–	–	–	–	–	–	–	–	–	–	–	–
